Experiment: Human HepG2 cell viability assay in 384 well format
Type: toxicity, cell-based
Parameters: dose 125 nL, time 70.5 hour; concentration not given beside the values
Conditions: HepG2 cells, read-out: Inhibition

Structure (SMILES)	cytotoxicity at 70.5 h [%]
CNc1[nH]nc(N)c1NC(=O)c1ccccc1	-17.7
Cc1ccc(CN2CCC3(CC(C(=O)NCC4CC4)=NO3)C2)s1 (configuration not stated)	-8.89
Cn1nc(C(=O)NCc2ccc(Cl)cc2)c2c1CCS(=O)(=O)C2	2.61
Cc1ccc(C(=O)N2CCN(c3ccnc4ccsc34)CC2)o1	-12
NC(=O)Cn1ccnc1C1CCCN(Cc2nc3ccccc3s2)C1 (configuration not stated)	-7.02
O=C1C(CS(=O)(=O)Nc2ccccc2)=NC(=O)n2cccc21	-7.6
CS(=O)(=O)NC1CCN(C(=O)c2ccc(F)cc2)CC1	-3.98
N#CC(NC(=O)CNC(=O)c1ccccc1)c1ccsc1 (configuration not stated)	-3.11
Cc1ccc(N2C[C@@H]3CN(Cc4csc(C)n4)CCO[C@@H]3C2)nn1	-2.48
O=C1OCCN1CC(=O)N1C[C@H]2CC[C@@H]1CN(C(=O)c1ccccc1)C2	2.12
COc1cc(C(=O)N2CCCS2(=O)=O)ccc1OC(C)C	21.8
CCN(Cc1ccc2c(c1)OCCO2)C(=O)NC(C)Cn1cccn1 (configuration not stated)	0.788
COc1ccc(C2=Nn3c(CCCN)nnc3-c3ccccc3C2)cc1	4.99
CN1CSC[C@H]1C(=O)N1CCN(Cc2cccc(F)c2)CC1	8.84
OC1(CNCCc2csc(-c3cccnc3)n2)CCNC1 (configuration not stated)	-14.2
N#Cc1ccccc1CN1CCC2(CC1)CC(c1ccccc1)C(=O)N2 (configuration not stated)	14
CNC(=O)c1cnc(/C=C/c2cc(OC)c(OC)c(OC)c2)s1	3.41
Cc1nnc([C@@]23CCO[C@@H]2CCN(Cc2cccc4ccccc24)C3)o1	-6.43
O=S1(=O)N(c2ccccc2)C[C@@H](O)[C@]12CCNC2	-3.92
CCN1CC(COc2ccc(OC)cc2)Oc2ccncc2S1(=O)=O (configuration not stated)	-0.442
Cn1cnc2c1CCN(Cc1csc(-c3ccco3)n1)C2	15.3

Structure (SMILES)	cytotoxicity at 70.5 h [%]
CCn1ncnc1CN1CCC(CNC(=O)c2cccnc2O)C1 (configuration not stated)	-4.94
Cc1cc(CNC(=O)c2cc(NC(=O)C(C)C)ccc2Cl)no1	13.5
CC(NC(=O)NCC1(c2ccc(Cl)cc2)CC1)c1nncn1C (configuration not stated)	-2.86
CCn1c(C)nnc1CN(C)C1CCN(Cc2c(C)noc2C)C1 (configuration not stated)	-4.05
O=C(C1CCCc2[nH]ncc21)N1CCCC1 (configuration not stated)	-4.89
Cc1cnn(CC2CN(c3ncnc4c3CCC4)CCO2)c1 (configuration not stated)	-1.52
NC(=O)COc1cccc(Cn2cccn2)c1	-3.94
OCC1(NCc2cnc(-c3ccsc3)s2)CCOCC1	-6.13
CN(C)c1cccc(C(=O)N2CCCSCC2CN2CCCC2)c1 (configuration not stated)	3.97
CCN(CC)C(=O)[C@@H]1C[C@@H](N)CN1C(=O)c1cc2c([nH]c1=O)CCC2	-10.8
Cc1cc(C)c(CNC(=O)C2CCCN(c3cnccn3)C2)c(=O)[nH]1 (configuration not stated)	-14.3
Cc1cc(CN2CCc3nn(C(C)C)c(=O)cc3C2)no1	5.97
COc1c(CNC2CCCOc3ccccc32)c(C(C)C)nn1C (configuration not stated)	-4.69
COc1ccc(CN2CCc3ncnc(C4CCOC4)c3CC2)cc1 (configuration not stated)	13.2
CCN(Cc1ccncc1)C1CCN(c2ccccc2)C1=O (configuration not stated)	1.49
COCC(O)CN1CCC(NC(=O)c2cccc(C)c2)CC1 (configuration not stated)	-2.52
Cc1nc(C)n(CC2CCCN(CCNC(=O)OC(C)(C)C)C2)n1 (configuration not stated)	-0.801
CN(C)C(=O)C(C)(C)c1ccc2c(c1)OCCO2	-5.25
Cc1ncnc(NCC(C)N(C)c2ccccc2)c1C (configuration not stated)	29.1
CC(O)C1CCN(C(=O)Nc2nc(-c3ccccc3)ns2)CC1 (configuration not stated)	4.55
O=C(COc1ccccc1)NCC1CC1	9.36

Structure (SMILES)	cytotoxicity at 70.5 h [%]
O=C(NCC1(O)CCC1)c1cccc(-n2cccn2)c1	-11.6
Cc1cccc(OCCNC(=O)CN2CCCC2Cn2cccn2)c1 (configuration not stated)	-15.8
O=C(c1ccco1)N1CCC2(CCC(=O)N2Cc2ccccc2)CC1	-11.1
O=C(NS(=O)(=O)c1ccc2c(c1)CCC2)C1COCCO1 (configuration not stated)	26.8
Cc1nc(C)n(CC2CCCCN2Cc2nc(-c3ccoc3)no2)n1 (configuration not stated)	-11.8
Cc1ncc(CC(=O)N2CCC(N3C[C@@H](C)O[C@@H](C)C3)CC2)c(=O)[nH]1	9.33
O=C(Nc1nncs1)NC1CCc2ccccc21 (configuration not stated)	-8.87
COc1ccc(CN(Cc2cnn(C)c2)CC(C)C)cn1	-6.19
CN(C)S(=O)(=O)NCC(O)c1cc2ccccc2s1 (configuration not stated)	3.05
COc1ccc(N2CCOCC3(CCCN(c4cnccn4)C3)C2)cc1 (configuration not stated)	-1.59
O=C1CC[C@H]2[C@H](CCN2c2ncccn2)N1c1ccccc1	-10.3
COc1ccc(-n2cc(CNC(=O)c3cc[nH]n3)nn2)cc1	-3.5
O=C(Cc1ccccc1)N1CCC2(CC1)CC(Nc1cnccn1)CO2 (configuration not stated)	-8.13
CCOc1cccc(CNC(=O)NC2CC=CC2)c1OC(F)F	0.101
CNc1cc(C2CCCN2Cc2ccc(OCC(=O)O)cc2)ccn1 (configuration not stated)	-5.44
O=C(Cc1ccccc1F)N1CCN(Cc2noc(C3CC3)n2)CC1	10.8
COc1ccccc1CN1CCC(O)(Cn2ccc3ncccc32)CC1	-2.09
CS(=O)(=O)c1ccc(CNC(=O)N2CCC(CO)CC2)cc1	-2.86
CCCc1cc(C(=O)N2CCCN(c3cccnn3)CC2)[nH]n1	-0.666
COc1ccc2c(c1)nc1n2[C@@H](CNC(=O)c2cccnc2)COC1	4.29
O=C(NCC(O)c1ccc(F)cc1F)c1ccccc1F (configuration not stated)	-12.6

Structure (SMILES)	cytotoxicity at 70.5 h [%]
COc1cccc(CN2CCCC2c2ccc[nH]2)c1 (configuration not stated)	0.927
CC(C)(C)NC(=O)CNC(=O)Nc1cc(-c2ccccc2)ns1	-14.8
CNCc1ccc(Oc2cncc(C)n2)cc1	-12.9
COc1ccc(NC(=O)N(CCO)Cc2ccsc2)cc1	-3.63
CCCN1CCN(Cc2nc3ccccc3[nH]2)[C@H]2CS(=O)(=O)C[C@H]21	-3.06
CCOC(=O)CNC(=O)N1CCCC(CNC(=O)c2ccco2)C1 (configuration not stated)	-1.85
c1cnc(N2CCO[C@H]3[C@H](OCCN4CCCC4)CC[C@@H]32)nc1	0.11
O=C1COC2(COCCN(Cc3ccsc3)C2)CN1c1ccoc1 (configuration not stated)	32.5
CCn1cnnc1CNC(=O)N1CCN(c2nc(C)c(C)s2)CC1	-3.66
COCc1nc(N(C)C)ncc1C(=O)Nc1ccc(Cl)cc1	-11.1
CSc1nnc(C2CCN(C(=O)N3CCOCC3)CC2)n1C(C)C	7.97
CCOc1ccnc(NCCc2nc(C)cc(=O)[nH]2)n1	-2.38
Cc1nnc(C(C)N2CCN(Cc3noc(C(C)(C)C)n3)CC2)o1 (configuration not stated)	-3.37
Cc1noc(C)c1CN1CCn2c(COC(C)C)nnc2C1	-10.8
c1cc(CN2CCN3C[C@H](Oc4cncnc4)C[C@H]3C2)ccn1	-5.1
Cc1cc(Br)c2c(c1)C1(CC(=O)Nc3c1cnn3C(C)C)C(=O)N2 (configuration not stated)	-24.3
CC(C)N1CCOC(c2ccnc(N(C)C)n2)C1 (configuration not stated)	-3.86
Cc1nc(C2(O)CCCNCC2)sc1CCOc1ccc(F)cc1 (configuration not stated)	16.3
CN(C)C(=O)c1n[nH]c2c1CN(Cc1ccccn1)CC2	-3.26
